Columns and labels:
Type in all cases: in vivo
Details in all cases: evaluated after 13 days
[1] = tested on: Abutilon theophrasti (ABUTH); assay: Pre-emergence herbicidal glasshouse test (Table B1)
Method in brief: (§1)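 Damage is rated 13 days after treatment on a 1–5 scale (5 = 80–100%). Application, usually 500 g/h in acetone/water (50:50) with 0.5% Tween 20, is made one day post-sowing for pre-emergence or eight days for post-emergence; glasshouse at 24/16 °C, 14 h light, 65% humidity.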

[2] = tested on: Echinochloa crus-galh (ECHCG); assay: as above
Method in brief: as §1

Setaria faberi (SETFA) [3] = assay: as above
Method in brief: as §1

[4] = tested on: Amaranthus retoflexus (AMARE); assay: as above
Method in brief: as §1

[5] = tested on: Ipomoea hederacea (IPOHE); assay: as above
Method in brief: as §1

[6] = tested on: Abutilon theophrasti (ABUTH); assay: Post-emergence herbicidal glasshouse test (Table B1)
Method in brief: as §1

[7] = tested on: Echinochloa crus-galh (ECHCG); assay: as above
Method in brief: as §1

Setaria faberi (SETFA) [8] = assay: as above
Method in brief: as §1

[9] = tested on: Amaranthus retoflexus (AMARE); assay: as above
Method in brief: as §1

[10] = tested on: Ipomoea hederacea (IPOHE); assay: as above
Method in brief: as §1

Cn1nnnc1NC(=O)c1ccc(OC(F)(F)F)c(NC(=O)C2(C)CC2)c1Cl [Compound 1.033]
PRE Application ABUTH, percentage damage on five-point scale ([1]; applied at 500 g/h): 5 (5=80-100%) | PRE Application ECHCG, percentage damage on five-point scale ([2]; applied at 500 g/h): 5 (5=80-100%) | PRE Application SETFA, percentage damage on five-point scale (Setaria faberi (SETFA) [3]; applied at 500 g/h): 5 (5=80-100%) | PRE Application AMARE, percentage damage on five-point scale ([4]; applied at 500 g/h): 5 (5=80-100%) | PRE Application IPOHE, percentage damage on five-point scale ([5]; applied): 5 (5=80-100%) | POST Application ABUTH, percentage damage on five-point scale ([6]; applied at 500 g/h): 5 (5=80-100%) | POST Application ECHCG, percentage damage on five-point scale ([7]; applied at 500 g/h): 5 (5=80-100%) | POST Application SETFA, percentage damage on five-point scale (Setaria faberi (SETFA) [8]; applied at 500 g/h): 5 (5=80-100%) | POST Application AMARE, percentage damage on five-point scale ([9]; applied at 500 g/h): 5 (5=80-100%) | POST Application IPOHE, percentage damage on five-point scale ([10]; applied at 500 g/h): 5 (5=80-100%)

Cn1nnnc1NC(=O)c1ccc(OC(F)(F)F)c(NC(=O)CC2CC2)c1Cl [Compound 1.034]
PRE Application ABUTH, percentage damage on five-point scale ([1]; applied at 500 g/h): 5 (5=80-100%) | PRE Application ECHCG, percentage damage on five-point scale ([2]; applied at 500 g/h): 5 (5=80-100%) | PRE Application SETFA, percentage damage on five-point scale (Setaria faberi (SETFA) [3]; applied at 500 g/h): 5 (5=80-100%) | PRE Application AMARE, percentage damage on five-point scale ([4]; applied at 500 g/h): 5 (5=80-100%) | PRE Application IPOHE, percentage damage on five-point scale ([5]; applied): 4 (4=60-79%) | POST Application ABUTH, percentage damage on five-point scale ([6]; applied at 500 g/h): 5 (5=80-100%) | POST Application ECHCG, percentage damage on five-point scale ([7]; applied at 500 g/h): 5 (5=80-100%) | POST Application SETFA, percentage damage on five-point scale (Setaria faberi (SETFA) [8]; applied at 500 g/h): 5 (5=80-100%) | POST Application AMARE, percentage damage on five-point scale ([9]; applied at 500 g/h): 5 (5=80-100%) | POST Application IPOHE, percentage damage on five-point scale ([10]; applied at 500 g/h): 5 (5=80-100%)

Cn1nnnc1NC(=O)c1ccc(OC(F)F)c(NC(=O)C2CC2(F)F)c1Cl (stereo not shown) [Compound 1.035]
PRE Application ABUTH, percentage damage on five-point scale ([1]; applied at 125 g/ha): 5 (5=80-100%) | PRE Application ECHCG, percentage damage on five-point scale ([2]; applied at 125 g/ha): 3 (3=40-59%) | PRE Application SETFA, percentage damage on five-point scale (Setaria faberi (SETFA) [3]; applied at 125 g/ha): 4 (4=60-79%) | PRE Application AMARE, percentage damage on five-point scale ([4]; applied at 125 g/ha): 5 (5=80-100%) | PRE Application IPOHE, percentage damage on five-point scale ([5]; applied at 125 g/ha): 3 (3=40-59%) | POST Application ABUTH, percentage damage on five-point scale ([6]; applied at 125 g/ha): 4 (4=60-79%) | POST Application ECHCG, percentage damage on five-point scale ([7]; applied at 125 g/ha): 4 (4=60-79%) | POST Application SETFA, percentage damage on five-point scale (Setaria faberi (SETFA) [8]; applied at 125 g/ha): 4 (4=60-79%) | POST Application AMARE, percentage damage on five-point scale ([9]; applied at 125 g/ha): 4 (4=60-79%) | POST Application IPOHE, percentage damage on five-point scale ([10]; applied at 125 g/ha): 4 (4=60-79%)

Cn1nnnc1NC(=O)c1ccc(OC(F)F)c(NC(=O)CC2CC2)c1Cl [Compound 1.036]
PRE Application ABUTH, percentage damage on five-point scale ([1]; applied at 125 g/ha): 5 (5=80-100%) | PRE Application ECHCG, percentage damage on five-point scale ([2]; applied at 125 g/ha): 5 (5=80-100%) | PRE Application SETFA, percentage damage on five-point scale (Setaria faberi (SETFA) [3]; applied at 125 g/ha): 5 (5=80-100%) | PRE Application AMARE, percentage damage on five-point scale ([4]; applied at 125 g/ha): 5 (5=80-100%) | PRE Application IPOHE, percentage damage on five-point scale ([5]; applied at 125 g/ha): 4 (4=60-79%) | POST Application ABUTH, percentage damage on five-point scale ([6]; applied at 125 g/ha): 5 (5=80-100%) | POST Application ECHCG, percentage damage on five-point scale ([7]; applied at 125 g/ha): 5 (5=80-100%) | POST Application SETFA, percentage damage on five-point scale (Setaria faberi (SETFA) [8]; applied at 125 g/ha): 5 (5=80-100%) | POST Application AMARE, percentage damage on five-point scale ([9]; applied at 125 g/ha): 5 (5=80-100%) | POST Application IPOHE, percentage damage on five-point scale ([10]; applied at 125 g/ha): 4 (4=60-79%)

CN(C(=O)CC1CC1)c1c(OC(F)F)ccc(C(=O)Nc2nnnn2C)c1Cl [Compound 1.037]
PRE Application ABUTH, percentage damage on five-point scale ([1]; applied at 125 g/ha): 5 (5=80-100%) | PRE Application ECHCG, percentage damage on five-point scale ([2]; applied at 125 g/ha): 5 (5=80-100%) | PRE Application SETFA, percentage damage on five-point scale (Setaria faberi (SETFA) [3]; applied at 125 g/ha): 4 (4=60-79%) | PRE Application AMARE, percentage damage on five-point scale ([4]; applied at 125 g/ha): 5 (5=80-100%) | PRE Application IPOHE, percentage damage on five-point scale ([5]; applied at 125 g/ha): 4 (4=60-79%) | POST Application ABUTH, percentage damage on five-point scale ([6]; applied at 125 g/ha): 5 (5=80-100%) | POST Application ECHCG, percentage damage on five-point scale ([7]; applied at 125 g/ha): 5 (5=80-100%) | POST Application SETFA, percentage damage on five-point scale (Setaria faberi (SETFA) [8]; applied at 125 g/ha): 5 (5=80-100%) | POST Application AMARE, percentage damage on five-point scale ([9]; applied at 125 g/ha): 5 (5=80-100%) | POST Application IPOHE, percentage damage on five-point scale ([10]; applied at 125 g/ha): 4 (4=60-79%)

Cc1cc(C(=O)Nc2c(OC(F)F)ccc(C(=O)Nc3nnnn3C)c2Cl)no1 [Compound 1.044]
PRE Application ABUTH, percentage damage on five-point scale ([1]; applied at 125 g/ha): 4 (4=60-79%) | PRE Application ECHCG, percentage damage on five-point scale ([2]; applied at 125 g/ha): 2 (2=20-39%) | PRE Application SETFA, percentage damage on five-point scale (Setaria faberi (SETFA) [3]; applied at 125 g/ha): 2 (2=20-39%) | PRE Application AMARE, percentage damage on five-point scale ([4]; applied at 125 g/ha): 4 (4=60-79%) | PRE Application IPOHE, percentage damage on five-point scale ([5]; applied at 125 g/ha): 1 (1=0-19%) | POST Application ABUTH, percentage damage on five-point scale ([6]; applied at 125 g/ha): 3 (3=40-59%) | POST Application ECHCG, percentage damage on five-point scale ([7]; applied at 125 g/ha): 2 (2=20-39%) | POST Application SETFA, percentage damage on five-point scale (Setaria faberi (SETFA) [8]; applied at 125 g/ha): 3 (3=40-59%) | POST Application AMARE, percentage damage on five-point scale ([9]; applied at 125 g/ha): 5 (5=80-100%) | POST Application IPOHE, percentage damage on five-point scale ([10]; applied at 125 g/ha): 4 (4=60-79%)

COC(C)C(=O)Nc1c(OC(F)(F)F)ccc(C(=O)Nc2nnnn2C)c1Cl (stereo not shown) [Compound 1.063]
PRE Application ABUTH, percentage damage on five-point scale ([1]; applied at 125 g/ha): 5 (5=80-100%) | PRE Application ECHCG, percentage damage on five-point scale ([2]; applied at 125 g/ha): 5 (5=80-100%) | PRE Application SETFA, percentage damage on five-point scale (Setaria faberi (SETFA) [3]; applied at 125 g/ha): 5 (5=80-100%) | PRE Application AMARE, percentage damage on five-point scale ([4]; applied at 125 g/ha): 5 (5=80-100%) | PRE Application IPOHE, percentage damage on five-point scale ([5]; applied at 125 g/ha): 5 (5=80-100%) | POST Application ABUTH, percentage damage on five-point scale ([6]; applied at 125 g/ha): 5 (5=80-100%) | POST Application ECHCG, percentage damage on five-point scale ([7]; applied at 125 g/ha): 5 (5=80-100%) | POST Application SETFA, percentage damage on five-point scale (Setaria faberi (SETFA) [8]; applied at 125 g/ha): 5 (5=80-100%) | POST Application AMARE, percentage damage on five-point scale ([9]; applied at 125 g/ha): 5 (5=80-100%) | POST Application IPOHE, percentage damage on five-point scale ([10]; applied at 125 g/ha): 4 (4=60-79%)
